Assay results reported in patent US7098215B2, “Nitrogenous compounds and antiviral drugs containing the same” (Kureha Chemical Industry Co., Ltd., priority 2000, dated 2006).

Tests used:
[1] = tested on: HIV-1IIIB infected MT-4 cells; assay: Anti-HIV activity: protection of HIV-1IIIB infected MT-4 cells, MTT method; assay type: cell-based; settings: MOI 0.01, culture for 5 days, concentration inhibiting 50% of cytotoxicity due to HIV infection
Experimental: HIV-1IIIB infected MT-4 cells were added to 96-well microtiter plates (3.0×10^4/well, MOI (Multiplicity of infection): 0.01), together with test compounds at different concentrations immediately after the infection. After culture for 5 days in a carbon dioxide incubator at 37° C., the number of surviving cells was counted by MTT (tetrazolium) method (Pawels et al., J. Virol. Methods, 20, 309-321, 1988).

ICR male mice = assay: Acute toxicity in ICR mice, intraperitoneal administration; assay type: in vivo; settings: 3 per group, 50 mg/kg intraperitoneally, twice a day, for four days, number of dead animals after 5 days
Experimental: Acute toxicity of the antiviral drug was examined. Three groups of 7 week-old, ICR male mice, each group consisting of 3 mice, were bred for one week. The compounds prepared in the Examples, dissolved in a physiological saline solution or distilled water, were intraperitoneally administered at a dose of 50 mg/kg, twice a day, for four days. After 5 days, the number of dead animals was examined.

HIV-1 (NL4-3) = assay: Antiviral effect in SCID mice transplanted with human PBMCs and infected with HIV-1 (NL4-3), HIV-1 p24 by ELISA; assay type: in vivo; settings: SCID mice with human PBMCs, virus NL4-3, 0.1 ml/2 mM solution/mouse intraperitoneally, 12 days after infection
Experimental: The effect of the antiviral drug on SCID mice (immunodeficiency mice) was examined.
TMβ-1 (rat anti-mouse IL-2Rβ monoclonal antibody) was intraperitoneally administered to C.B-17 SCID mice (8 weeks-old, female, provided by CLEA Japan, Inc.) in the amount of 1 mg/mouse to exterminate NK cells. After 2 days, 1.5×10^6 human PBMCs were transplanted in the spleen together with human rIL-4 (0.2 μg/mouse). On the same day, the compound No. 86 (0.1 ml/2 mM solution/mouse) or a medium (0.1 ml) (control) was intraperitoneally administered. After 1 day, HIV-1 (NL4-3) (0.2 ml/1×10^4 TCID50/ml) was intraperitoneally administered to cause virus infection. The same amount of the compound No. 86 (or the medium) was intraperitoneally administered on each of 4 consecutive days thereafter. rIL-4 (0.2 μg) was also intraperitoneally administered 4 days after infection. 12 days after infection, blood plasma and abdominal cavity washing solutions were collected to measure the amount of HIV-1 P^24 using an ELISA kit.

Structure (SMILES)	EC50 [1] [nM]	Dead mouse (ICR male mice)	p24 level Abdominal cavity washing solution (HIV-1 (NL4-3)) [pg/mL]	p24 level Plasma (HIV-1 (NL4-3)) [pg/mL]
C[C@H](NC(=O)[C@H](CCCNC(=N)N)NC(=O)c1ccc(CNCc2ncc[nH]2)c2ccccc12)c1cccc2ccccc12 [Compound No. 49, N^α-(4-(imidazol-2-ylmethyl)aminomethylnaphthoyl)-L-arginine(1′S)-(1′-(1-naphthyl)ethyl)amide]	86	0/3	–	–
Cn1ccnc1CNCc1ccc(C(=O)N[C@@H](CCCNC2CCCc3cccnc32)C(=O)NCc2cccc3ccccc23)cc1 (stereo partly drawn) [Compound No. 96, (2S)-2-((1-methylimidazol-2-ylmethyl)aminomethyl)benzoylamino-5-(5,6,7,8-tetrahydroquinolyl-8-yl)aminovaleric acid 1-naphthalenemethyleneamide]	34	0/3	–	–
C[C@H](NC(=O)[C@H](CCCN=C(N)N)NC(=O)c1ccc(CNCc2ccccn2)cc1)c1cccc2ccccc12 [Compound No. 86, N^α-(4-(N-2-picolylaminomethyl)benzoyl)-L-arginine (1′S)-1′-(1-naphthyl)ethylamide]	43	0/3	<5	<5
C[C@H](NC(=O)[C@H](CCCNC1CCCc2cccnc21)NC(=O)c1ccc(CNCc2ncc[nH]2)cc1)c1cccc2ccccc12 (stereo partly drawn) [Compound No. 106]	25	0/3	–	–
O=C(N[C@@H](CCCNC1CCCc2cccnc21)C(=O)NCc1cccc2ccccc12)c1ccc(CNCc2ccccn2)cc1 (stereo partly drawn) [Compound No. 65, (2S)-2-(4-(N-2-picolylaminomethyl)benzoylamino)-5-((5,6,7,8-tetrahydroquinolin-8-yl)amino)valeric acid 1-naphthalenemethylamide]	93	0/3	–	–
